This note sets out measurements from US20260216182A1, “PYRIDAZINE NLRP3 INHIBITOR COMPOUND, PHARMACEUTICAL COMPOSITION, AND PREPARATION METHOD THEREFOR AND USE THEREOF” (CHANGCHUN GENESCIENCE PHARMACEUTICAL CO., LTD., priority 2022, published 2026).

Molecules are shown by their SMILES.

The target of this experiment is T1, NLRP3 (Homo sapiens, UniProt Q96P20).
T1 construct: endogenous in cells; host or cells: THP-1 (human monocyte, PMA-differentiated, LPS-primed, nigericin-stimulated)
T1 sequence (Q96P20 whole entry): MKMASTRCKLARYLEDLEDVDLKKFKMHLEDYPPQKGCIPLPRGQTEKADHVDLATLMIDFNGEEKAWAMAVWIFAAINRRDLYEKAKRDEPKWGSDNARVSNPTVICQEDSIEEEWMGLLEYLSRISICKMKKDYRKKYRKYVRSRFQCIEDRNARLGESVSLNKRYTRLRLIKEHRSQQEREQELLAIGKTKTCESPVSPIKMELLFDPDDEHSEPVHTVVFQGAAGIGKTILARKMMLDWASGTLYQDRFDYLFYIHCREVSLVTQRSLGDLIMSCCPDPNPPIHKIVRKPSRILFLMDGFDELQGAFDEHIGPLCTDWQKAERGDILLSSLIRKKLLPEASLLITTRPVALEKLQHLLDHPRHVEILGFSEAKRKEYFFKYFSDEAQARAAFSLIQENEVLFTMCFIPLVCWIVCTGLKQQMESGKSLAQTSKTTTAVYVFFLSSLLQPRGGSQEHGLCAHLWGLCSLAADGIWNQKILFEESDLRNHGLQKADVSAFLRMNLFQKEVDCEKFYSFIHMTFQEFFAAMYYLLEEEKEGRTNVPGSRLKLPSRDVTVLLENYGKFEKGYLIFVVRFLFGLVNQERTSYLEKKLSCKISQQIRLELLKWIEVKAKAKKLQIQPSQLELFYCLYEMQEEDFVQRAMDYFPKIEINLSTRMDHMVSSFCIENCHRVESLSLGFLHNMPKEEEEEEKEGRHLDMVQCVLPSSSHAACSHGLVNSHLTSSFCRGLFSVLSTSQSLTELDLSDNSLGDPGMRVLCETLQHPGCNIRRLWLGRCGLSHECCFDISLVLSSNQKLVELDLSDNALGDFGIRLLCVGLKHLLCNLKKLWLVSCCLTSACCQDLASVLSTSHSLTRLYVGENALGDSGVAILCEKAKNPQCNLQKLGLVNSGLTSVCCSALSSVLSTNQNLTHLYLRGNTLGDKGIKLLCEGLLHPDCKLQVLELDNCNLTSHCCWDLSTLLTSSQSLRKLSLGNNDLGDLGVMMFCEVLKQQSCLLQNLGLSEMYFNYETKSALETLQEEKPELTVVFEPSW
As to the kind of experiment: IC50 of NLRP3 inhibitors in reducing IL-1β secretion by THP-1 cells (PMA, LPS, nigericin; ELISA). Format: cell-based. As to conditions: compound + nigericin 1 h. The method, then:
Test Example 1 Experiment on Detection of IC50 of NLRP3 Inhibitors in Reducing the Level of IL-1β Secretion by THP-1 Cells
In this experiment, we use the human monocyte THP-1 to study the inhibitory activity of NLRP3 inhibitor on the secretion of IL-Iβ by cells. Human THP-1 cells are treated with crotonol-12-tetradecanoate-13-acetate (PMA) to differentiate into mature macrophage models. Then, according to the two stages of inflammasome formation in cells (assembly and activation), the cells are stimulated with lipopolysaccharide (LPS) and nigericin in turn, ultimately promoting the extracellular release of IL-1β by THP-1 cells. The first stage of inflammasome formation involves stimulating cells with LPS (lipopolysaccharide), an agonist of the Toll-like receptor TLR4, to activate the expression of the inflammasome-associated proteins NLRP3, caspase 1, and pro-IL-1β, a precursor of IL-1β. The second stage of inflammasome formation involves the addition of the potassium ion carrier nigericin, which causes a series of membrane potential changes in THP-1 cells, destroys the cell membrane structure, causes the efflux of cellular potassium ions, further stimulates the oligomerization of NLRP3 monomers to form NLRP3 oligomers, and begins to recruit ASC and pro-caspase-1 to assemble the NLRP3 inflammasome complex containing a large amount of pro-caspase-1. The pro-caspase-1 on the activated NLRP3 inflammasome is enzymatically self-activated to form a large amount of active caspase-1. The activated caspase-1 further enzymatically promotes the conversion of pro-IL-1β into mature IL-1β that can be secreted.
(1) Cell suspensions were collected. The cells were centrifuged at 1000 rpm for 4 min, the supernatant was discarded, the cells were resuspended with 1 mL of test medium, and then the cell culture medium was gently pipetted up and down with a pipette and its tip to break up the cell aggregates. After counting the cells, the THP-1 cells were resuspended with complete RPMI medium 1640 containing PMA and seeded into 96-well plates and cultured in a 37° C., 5% CO2 incubator for 72 h.
(2) The culture medium was taken out from each well with an automatic plate washer dispenser EL406 and each well was rinsed twice with PBS. To each well, 96 μL of RPMI 1640 medium containing LPS was added. The cells were cultured in a 37° C., 5% CO2 incubator for 4 h.
(3) To each well, 2 μL of the compound and 2 μL of nigericin sodium salt were added, and the final compound concentration selected was 5000 nM, 1000 nM, 200 nM, 40 nM, 8 nM, 1.6 nM, 0.32 nM, 0 nM, respectively. The cells were cultured in a 37° C., 5% CO2 incubator for 1 h.
(4) An appropriate amount of supernatant was taken out, diluted 100 times, and the content of IL-1β in the supernatant was detected using Human IL-1 beta Valukine ELISA kit.
What is called IC50 is the concentration that gives 50% inhibition. Consider `O=C(C1CC1)N1CCC[C@@H](Nc2nnc(-c3ccc(Cl)cc3O)c3ccncc23)C1` [Compound 006, (R)-(3-((1-(4-chloro-2-hydroxyphenyl)pyrido[3,4-d]pyridazin-4-yl)amino)piperidin-1-yl)(cyclopropyl)methanone], for which the IC50 amounted to 12 nM. Then `Oc1cc(Cl)ccc1-c1nnc(N[C@@H]2CCCC(=C(F)F)C2)c2cnccc12` [Compound 080, (R)-5-chloro-2-(4-((3-(difluoromethylene)cyclohexyl)amino)pyridin[3,4-d]pyridazin-1-yl)phenol], with 36 nM; and `Cc1cc(Cl)cc(O)c1-c1nnc(NCC(C)(C)O)c2cc(-n3cccn3)ccc12` [Compound 026, 5-chloro-2-(4-((2-hydroxy-2-methylpropyl)amino)-6-(1H-pyrazol-1-yl)phthalazin-1-yl)-3-methylphenol], with 35 nM. Take `Cn1cc(-c2ccc3c(-c4ccc(Cl)cc4O)nnc(NCC(C)(C)O)c3c2)cn1` [Compound 004, 5-chloro-2-(4-((2-hydroxy-2-methylpropyl)amino)-6-(1-methyl-1H-pyrazol-4-yl)phthalazin-1-yl)phenol]: the 50% inhibitory concentration (IC50) came to 63 nM.

Consider `CC(C)(O)CNc1nnc(-c2ccc3sc(F)cc3c2O)c2ccc(C#N)cc12` [Compound 019, 1-(2-fluoro-4-hydroxybenzo[b]thiophen-5-yl)-4-((2-hydroxy-2-methylpropyl)amino) phthalazine-6-carbonitrile], for which the IC50 stood at 111 nM.

In the case of `CC#Cc1ccc2c(-c3ccc(C(F)(F)F)cc3O)nnc(NCC(C)(C)O)c2c1` [Compound 069, 2-(4-((2-hydroxy-2-methylpropyl)amino)-6-(prop-1-yn-1-yl)phthalazin-1-yl)-5-(trifluoromethyl)phenol], the IC50 turned out to be 31 nM. As for `Cc1cc(Cl)cc(O)c1-c1nnc(NCC(C)(C)O)c2cc(-c3cnn(C)c3)ccc12` [Compound 038], the figure is 42 nM. In the case of `CC#Cc1ccc2c(-c3ccc(C(F)(F)F)cc3O)nnc(N[C@@H]3CCC[C@H](O)C3)c2c1` [Compound 070], the IC50 was found to be 42 nM. Take `N#Cc1ccc2c(-c3ccc(Cl)cc3O)nnc(N[C@@H]3CCCN(C(=O)C4CC4)C3)c2c1` [Compound 005, (R)-1-(4-chloro-2-hydroxyphenyl)-4-((1-(cyclopropanecarbonyl)piperidin-3-yl)amino) phthalazin-6-carbonitrile]: the IC50 was 37 nM. Turning to `CC(C)(O)CNc1nnc(-c2ccc3sccc3c2O)c2ccc(C#N)cc12` [Compound 018, 4-((2-hydroxy-2-methylpropyl)amino)-1-(4-hydroxybenzo[b]thiophen-5-yl) phthalazine-6-carbonitrile], the IC50 was 50 nM. Then `CCn1cc(-c2ccc3c(-c4c(C)cc(Cl)cc4O)nnc(NCC(C)(C)O)c3c2)cn1` [Compound 051, 5-chloro-2-(6-(1-ethyl-1H-pyrazol-4-yl)-4-((2-hydroxy-2-methylpropyl)amino)phthalazin-1-yl)-3-methylphenol], with 46 nM. Regarding `Cc1cc(C(F)(F)F)cc(O)c1-c1nnc(NCC(C)(C)O)c2cc(C#N)ccc12` [Compound 007, 4-((2-hydroxy-2-methylpropyl)amino)-1-(2-hydroxy-6-methyl-4-(trifluoromethyl)phenyl) phthalazin-6-carbonitrile], the IC50 stood at 29 nM. Regarding `CC(C(=O)N1CCCC1)N1CCC[C@@H](Nc2nnc(-c3ccc(Cl)cc3O)c3ccncc23)C1` (stereo partly drawn) [Compound 042], the IC50 stood at 14 nM. Turning to `CC#Cc1ccc2c(-c3ccc(C(F)(F)F)cc3O)nnc(N[C@@H]3COCC[C@H]3O)c2c1` [Compound 067, (3R,4R)-3-((4-(2-hydroxy-4-(trifluoromethyl)phenyl)-7-(prop-1-yn-1-yl)phthalazin-1-yl)amino)tetrahydro-2H-pyran-4-ol], the IC50 is 66 nM. As for `CC#Cc1ccc2c(-c3ccc(Cl)cc3O)nnc(N[C@@H]3CCC(=O)N(CCO)C3)c2c1` [Compound 076, (R)-5-((4-(4-chloro-2-hydroxyphenyl)-7-(prop-1-yn-1-yl)phthalazin-1-yl)amino)-1-(2-hydroxyethyl) piperidin-2-one], the figure is 35 nM; as for `CC#Cc1ccc2c(-c3c(O)cc(C(F)(F)F)cc3F)nnc(N[C@H]3C[C@@](C)(O)C3)c2c1` [Compound 066, 3-fluoro-2-(4-(((1S,3S)-3-hydroxy-3-methylcyclobutyl)amino)-6-(prop-1-yn-1-yl)phthalazin-1-yl)-5-(trifluoromethyl)phenol], 20 nM; as for `CC#Cc1ccc2c(-c3ccc(C(F)(F)F)cc3O)nnc(N[C@@H]3CCCN(C)C3)c2c1` [Compound 068, (R)-2-(4-((1-methylpiperidin-3-yl)amino)-6-(prop-1-yn-1-yl)phthalazin-1-yl)-5-(trifluoromethyl)phenol], 39 nM. As for `CC#Cc1ccc2c(-c3ccc(C(F)(F)F)cc3O)nnc(N[C@H]3C[C@@](C)(O)C3)c2c1` [Compound 065, 2-(4-(((1S, 3S)-3-hydroxy-3-methylcyclobutyl)amino)-6-(prop-1-yn-1-yl)phthalazin-1-yl)-5-(trifluoromethyl)phenol], the figure is 13 nM; as for `CC#Cc1ccc2c(-c3ccc(Cl)cc3O)nnc(NCC(C)(C)O)c2c1` [Compound 036, 5-chloro-2-(4-((2-hydroxy-2-methylpropyl)amino)-6-(prop-1-yn-1-yl)phthalazin-1-yl)phenol], 51 nM; as for `Cc1cc(Cl)cc(O)c1-c1nnc(NCC(C)(C)O)c2cc(-n3ccnn3)ccc12` [Compound 058, 5-chloro-2-(4-((2-hydroxy-2-methylpropyl)amino)-6-(1H-1,2,3-triazol-1-yl)phthalazin-1-yl)-3-methylphenol], 158 nM. Turning to `CC(C(=O)NC1CC1)N1CCC[C@@H](Nc2nnc(-c3ccc(Cl)cc3O)c3ccncc23)C1` (mixture of isomers) [Compound 041, 2-((R)-3-((1-(4-chloro-2-hydroxyphenyl)pyrido[3,4-d]pyridazin-4-yl)amino)piperidin-1-yl)-N-cyclopropylpropionamide], the IC50 was 14 nM. `CC#Cc1ccc2c(-c3ccc(C(F)(F)F)cc3O)nnc(N[C@@H]3CCCC[C@H]3O)c2c1` [Compound 061, 2-(4-(((1R,2R)-2-hydroxycyclohexyl)amino)-6-(prop-1-yn-1-yl)phthalazin-1-yl)-5-(trifluoromethyl)phenol]: the IC50 worked out at 23 nM. Take `Cc1cc(Cl)cc(O)c1-c1nnc(NCC(C)(C)O)c2cc(-c3cnn(C4CC4)c3)ccc12` [Compound 039, 5-chloro-2-(6-(1-cyclopropyl-1H-pyrazol-4-yl)-4-((2-hydroxy-2-methylpropyl)amino)phthalazin-1-yl)-3-methylphenol]: the IC50 was found to be 73 nM.

Take `CC(C)(O)CNc1nnc(-c2ccc(Cl)cc2O)c2ccc(C#N)cc12` [Compound 001, 1-(4-chloro-2-hydroxyphenyl)-4-((2-hydroxy-2-methylpropyl)amino) phthalazin-6-carbonitrile]: the 50% inhibitory concentration (IC50) is 88 nM. For `CC#Cc1ccc2c(-c3c(C)cc(Cl)cc3O)nnc(NC[C@@H](C)O)c2c1` (mixture of isomers) [Compound 035], the IC50 was found to be 14 nM. As to `Cc1cc(Cl)cc(O)c1-c1nnc(NCC(C)(C)O)c2cc(-c3ccn(C)n3)ccc12` [Compound 040, 5-chloro-2-(4-((2-hydroxy-2-methylpropyl)amino)-6-(1-methyl-1H-pyrazol-3-yl)phthalazin-1-yl)-3-methylphenol], the IC50 amounted to 54 nM.

Turning to `CC#Cc1ccc2c(-c3ccc(Cl)cc3O)nnc(N[C@@H]3CCCN(CCO)C3=O)c2c1` [Compound 075, (R)-3-((4-(4-chloro-2-hydroxyphenyl)-7-(prop-1-yn-1-yl)phthalazin-1-yl)amino)-1-(2-hydroxyethyl) piperidin-2-one], the half-maximal inhibitory concentration (IC50) stood at 7 nM.

With `NC(=O)N1CCC[C@@H](Nc2nnc(-c3ccc(Cl)cc3O)c3ccncc23)C1` [Compound 008, (R)-3-((1-(4-chloro-2-hydroxyphenyl)pyrido[3,4-d]pyridazin-4-yl)amino)piperidin-1-formamide], the IC50 came out at 39 nM.

On to `CC#Cc1ccc2c(-c3ccc(C(F)(F)F)cc3O)nnc(NC[C@H](O)CO)c2c1` [Compound 056, (S)-3-((4-(2-hydroxy-4-(trifluoromethyl)phenyl)-7-(prop-1-yn-1-yl)phthalazin-1-yl)amino) propan-1,2-diol], for which the IC50 stood at 18 nM. Then `CC#Cc1ccc2c(-c3c(C)cc(Cl)cc3O)nnc(NCC(C)(C)O)c2c1` [Compound 024-1], with 108 nM.
